Tests used:
[1] = test system: APPs levels in the cerebrospinal fluid; test: Western blot of secreted APPs in CSF after i.p. injection; assay type: in vivo, guinea pig; conditions: for APPs levels in the cerebrospinal fluid relative to saline-injected control: CSF one hour after injection, p<0.05; for Inhibition of the stimulatory effect of dexnorfenfluramine (1 mg/kg) on APPs in CSF: ritanserin 1 mg/kg or ketanserin 2 mg/kg, CSF one hour after injections
Excerpt: (§1) Guinea pigs are acclimatized to animal housing conditions for at least 70 days before receiving drug treatments or CSF withdrawal. CSF is withdrawn from the cisternae magna. Briefly, the dorsal cervical area and the occipital area of the skull is shaved and cleansed with alcohol after anesthesizing the guinea pigs with ketamine. A 33-gauge needle is used to penetrate the skin, the atlanto-occipital membrane and the dura mater in the region between the anterior of the first vertebra, and posterior of the cerebellum and the occipital protuberance. Upon penetration of the cistemae magna, a slight resistance in advancing the needle is felt; CSF is withdrawn via a PE10 polyethylene tubing attached to the needle at one end, and to a 20 ml syringe at the other. No more than 200 μL of CSF is withdrawn from each guinea pig per session or within a 24h interval. Occasionally, blood is present in the CSF; these samples are discarded and not used for analysis. The entire procedure for CSF withdrawal is completed within 5 minutes.
[…] Sterile normal saline is given control guinea pigs. To determine the time-course of APPs secretion, CSF is withdrawn at 1, 2, 4 or 8h after i.p. injections of either 1 mg/kg dexnorfenfluramine or saline. To determine the effect of chronic dexnorfenfluramine administration on secreted and brain APP levels, guinea pigs are injected with 2 mg/kg dexnorfenfluramine for 10 consecutive days. Withdrawal of CSF is performed 2h after dexnorfenfluramine on the tenth day, after which the guinea pigs are sacrificed and brains removed for analysis. Each guinea pig is repeatedly and randomly assigned on different days for either dose-response, for time-course, and for dexnorfenfluramine-5HT antagonist studies of APPs or Aβ secretion.
CSF (1-200 μL) is used for Western blot analysis of secreted APPs. For analysis of APP holoprotein, brain tissue from the cortex and hippocampus are collected in Eppendorf tubes and sonicated in 50 μL lysis buffer (60 mM Tris-HCl, 4%SDS, 20% glycerol, 1 mM dithiotreitol). The samples are boiled for 10 min to inhibit protease activity. The total amount of protein in each sample is measured by the bicinchoninic acid (Sigma) assay. Prior to gel electrophoresis, 1 μL of 5% bromphenol blue solution is added to each sample.
The amount of CSF or cell protein loaded for sodium dodecyl sulfate-polyacrylamide gel electrophoresis (10-20% SDS PAGE; Bio-Rad) is normalized for the amount of protein per sample. Proteins (equivalent to ˜100 μg cell protein/lane) are separated by electrophoresis, electroblotted onto polyvinylidene difluoride membranes (Immobilon-P, Millipore) and blocked in Tris-buffered saline with 0.15% Tween 20 (TBST) containing 5% powdered milk for 30 min. After 2×10 min rinses in TBST, the membranes are incubated in TBST containing an appropriate antibody. Monoclonal antibody 22C11 (from Boehringer-Mannheim) and APP-KPI (from Chemicon) were used to detect the N-terminus and KPI-domain of APP respectively; an antibody against glial fibrillary acidic […] (GFAP) is obtained from Chemicon.
After an overnight incubation, membranes are rinsed in TBST before being treated for lh with a peroxidase-linked secondary antibody. After several rinses in TBST, protein bands are visualized on Kodak X-AR films by an enhanced chemiluminescence method (Amersham). Optical densities of the protein bands are quantitated by laser scanning densitometry (LKB, Bromma, Sweden), and normalized to the densities of those bands generated under control conditions.
Data Analysis—Measurements of cellular and secreted proteins are normalized against those of control groups prepared in parallel and loaded onto the same blot. Analyses of variance (ANOVA) and t-tests for repeated measures are used to evaluate differences between groups (significance level, p=0.05), using drug treatments as the independent variable. Data are presented as means±SE, n=number of independent experiments.

[2] = test system: Aβ1-40 in the cerebrospinal fluid; test: Aβ40 ELISA of CSF after i.p. injection; assay type: in vivo, guinea pig
Excerpt: as §1, with “minutes. […]” for “minutes.”
(§2) Measurements of soluble Aβ1-40 or Aβ1-42 in the CSF are quantified using the Aβ40 or Aβ42 enzyme-linked immunosorbent assay (ELISA) kit (QBC, Hopkinton, Mass.) using the procedures recommended by the manufacturer. […]

[3] = test system: Aβ1-42 in the cerebrospinal fluid; test: Aβ42 ELISA of CSF after i.p. injection; assay type: in vivo, guinea pig
Excerpt: as §1, with “minutes. […]” for “minutes.”
as §2

[4] = test system: Brain APP holoprotein; test: Western blot of brain APP holoprotein after chronic administration; assay type: in vivo, guinea pig; conditions: 10 consecutive days i.p., 1 mg/kg, p>0.05
[5] = test system: GFAP-immunoreactive cultured astrocytes; test: APP overexpression in cultured astrocytes; assay type: cell-based, rat
Method: Astrocytes are isolated from cortices from postnatal rats by methods standard in the art. In brief, dissected cortices are dissociated by trypsinization and trituration through a flamepolished Pasteur pipette. Cells are plated onto poly-L-lysine coated 35- or 100 mm culture dishes at densities of about 10-25 cells/mm^2. The initial culture media, minimal essential medium (MEM, Gibco) containing 10% horse serum (BioWhittaker), are aspirated after 2-5 h after plating to remove unattached cells and debris, and replaced with MEM containing 7.5% fetal bovine serum (FBS, BioWhittaker). Half the media is replaced with MEM/7.5% FBS twice weekly. Cells are kept at 37° C. in a humidified 5% CO2/95% air incubator. Media are changed twice weekly. […]
The amount of media or cell protein loaded for sodium dodecyl sulfate-polyacrylamide gel electrophoresis (10-20% SDS PAGE; Bio-Rad) is normalized for the amount of protein per sample. […] Monoclonal antibodies 22C11 and GFAP (both from Boehringer Mannheim) are used to detect the N-terminus of APP and glial fibrillary acidic protein respectively; antisera R37 and R98 (gifts of Dr. F. Kametani, Tokyo Institute of Psychiatry) are used to detected the C-terminus and KPI motifs of APP respectively; antiserum C8 (gift of Dr. D. Selkoe, Women's Hospital, Harvard Medical School, Cambridge, Mass.) is used to detect the C-terminus of APP. […]

[6] = 10 consecutive days i.p., 1 mg/kg
[7] = 0.5, 1, 2 or 4 mg/kg, single injection, p>0.05

Row | Compound | APPs levels in the cerebrospinal fluid relative to saline-injected control ([1]; 0.5 mg/kg i.p.) [fold] | APPs levels in the cerebrospinal fluid relative to saline-injected control ([1]; 1 mg/kg i.p.) [fold] | APPs levels in the CSF relative to control group ([1]; 1 mg/kg, 1h after injection) [fold] | APPs levels in the CSF relative to control group ([1]; 1 mg/kg, 2h after injection) [fold] | APPs levels in the CSF relative to control group ([1]; 1 mg/kg, 4h after injection) [fold] | APPs levels in the CSF relative to control group ([1]; 1 mg/kg, 8h after injection) [fold] | APPs levels in the cerebrospinal fluid relative to saline-injected control ([1]; 2 mg/kg i.p.) [fold] | APPs levels in the cerebrospinal fluid relative to saline-injected control ([1]; 4 mg/kg i.p.) [fold] | Increase of APPs levels in CSF relative to control [1, 6] [fold] | Effect on levels of Aβ1-40 in the cerebrospinal fluid relative to control [2, 7] | Aβ1-40 levels in CSF relative to control [2, 6] | Effect on levels of Aβ1-42 in the cerebrospinal fluid relative to control [3, 7] | Aβ1-42 levels in CSF relative to control [3, 6] | Brain APP holoprotein levels [4] | Effect on APP overexpression in cultured astrocytes [5] | Inhibition of the stimulatory effect of dexnorfenfluramine (1 mg/kg) on APPs in CSF [1]
1 | CC(N)Cc1cccc(C(F)(F)F)c1 (single isomer, unassigned; (+)) [dexnorfenfluramine, (+)2-amino-1-(3-trifluoromethylphenyl) propane] | 1.25 | 1.45 | 1.5 | 2.0 | 1.3 | 1.5 | 1.6 | 1.4 | 1.6 | no significant effect | decreased | no significant effect | decreased | not altered | can inhibit APP overexpression | –
2 | Cc1nc2sccn2c(=O)c1CCN1CCC(=C(c2ccc(F)cc2)c2ccc(F)cc2)CC1 [ritanserin] | – | – | – | – | – | – | – | – | – | – | – | – | – | – | – | completely inhibited
3 | O=C(c1ccc(F)cc1)C1CCN(CCn2c(=O)[nH]c3ccccc3c2=O)CC1 [ketanserin] | – | – | – | – | – | – | – | – | – | – | – | – | – | – | – | completely inhibited
